Source: US20100267561A1, “HERBICIDAL PYRIDAZINONE DERIVATIVES” (priority 2007, published 2010)

How the values were obtained:
Experiment in all cases: Test B pre-/postemergence plant response
Assay type in all cases: in vivo
[1] = tested on: bermudagrass (Cynodon dactylon)
Description: (§1) Seeds of plant species selected from blackgrass (Alopecurus myosuroides), downy bromegrass (Bromus tectorum), green foxtail (Setaria viridis), Italian ryegrass (Lolium multiflorum), wheat (Triticum aestivum), wild oat (Avena fatua), catchweed bedstraw (Galium aparine), bermudagrass (Cynodon dactylon), surinam grass (Brachiaria decumbens), cocklebur (Xanthium strumarium), corn (Zea mays), large crabgrass (Digitaria sanguinalis), woolly cupgrass (Eriochloa villosa), giant foxtail (Setaria faberii), goosegrass (Eleusine indica), johnsongrass (Sorghum halepense), kochia (Kochia scoparia), lambsquarters (Chenopodium album), morningglory (Ipomoea coccinea), eastern black (E.B.) nightshade (Solanum ptycanthum), yellow nutsedge (Cyperus esculentus), pigweed (Amaranthus retroflexus), common ragweed (Ambrosia elation), Russian thistle (Salsola iberica), soybean (Glycine max), common (oilseed) sunflower (Helianthus annuus), and velvetleaf (Abutilon theophrasti) were planted and treated preemergence with test chemicals formulated in a non-phytotoxic solvent mixture which included a surfactant.
(§2) At the same time, plants selected from these crop and weed species and also winter barley (Hordeum vulgare), canarygrass (Phalaris minor), chickweed (Stellaria media) and windgrass (Apera spica-venti) were treated with postemergence applications of some of the test chemicals formulated in the same manner. Plants ranged in height from 2 to 18 cm (1- to 4-leaf stage) for postemergence treatments.
(§3) Plant species in the flooded paddy test consisted of rice (Oryza sativa), umbrella sedge (Cyperus difformis), ducksalad (Heteranthera limosa) and barnyardgrass (Echinochloa crus-galli) grown to the 2-leaf stage for testing. At time of treatment, test pots were flooded to 3 cm above the soil surface, treated by application of test compounds directly to the paddy water, and then maintained at that water depth for the duration of the test. Treated plants and controls were maintained in a greenhouse for 13 to 15 days, after which time all species were compared to controls and visually evaluated. Plant response ratings, summarized in Table B, are based on a scale of 0 to 100 where 0 is no effect and 100 is complete control. A dash (-) response means no test result.

[2] = tested on: downy bromegrass (Bromus tectorum)
Description: as §1, §2, §3

[3] = tested on: Italian ryegrass (Lolium multiflorum)
Description: as §1, §2, §3

soybean (Glycine max) = tested on: soybean (Glycine max)
Description: as §1, §2, §3

[4] = tested on: pigweed (Amaranthus retroflexus)
Description: as §1, §2, §3

[5] = tested on: morningglory (Ipomoea coccinea)
Description: as §1, §2, §3

corn (Zea mays) = tested on: corn (Zea mays)
Description: as §1, §2, §3

[6] = tested on: woolly cupgrass (Eriochloa villosa)
Description: as §1, §2, §3

[7] = tested on: velvetleaf (Abutilon theophrasti)
Description: as §1, §2, §3

[8] = tested on: eastern black (E.B.) nightshade (Solanum ptycanthum); details: Preemergence, 250 g ai/ha; scale 0 to 100
Description: as §1, §2, §3

kochia (Kochia scoparia) = tested on: kochia (Kochia scoparia)
Description: as §1, §2, §3

[9] = tested on: green foxtail (Setaria viridis)
Description: as §1, §2, §3

[10] = tested on: surinam grass (Brachiaria decumbens)
Description: as §1, §2, §3

[11] = Postemergence, 31 g ai/ha, scale 0 to 100, 0 no effect, 100 complete control
[12] = Postemergence, 62 g ai/ha, scale 0 to 100
[13] = Postemergence, 125 g ai/ha, scale 0 to 100
[14] = Postemergence, 250 g ai/ha, scale 0 to 100
[15] = Preemergence, 31 g ai/ha, 0 to 100 scale, 0 no effect, 100 complete control
[16] = Preemergence, 62 g ai/ha, scale 0 to 100
[17] = Preemergence, 125 g ai/ha, scale 0 to 100
[18] = Preemergence, 250 g ai/ha, scale 0 to 100

Structure (SMILES): Cc1cc(-c2ccc(Br)cc2)nn1-c1c(O)cnn(C)c1=O [Compound 4]
- Bermudagrass plant response rating ([1]; 250 g ai/ha, preemergence, 0-100 scale): 100
- Plant response rating, Bermudagrass [1, 11]: 100
- Plant response rating, Bermudagrass [1, 12]: 100
- Plant response rating, Bermudagrass [1, 13]: 100
- Plant response rating, Bermudagrass [1, 14]: 100
- Plant response rating, Bermudagrass [1, 15]: 100
- Plant response rating, Bermudagrass [1, 16]: 100
- Plant response rating, Bermudagrass [1, 17]: 100
- Plant response rating, Bromegrass, Downy [2, 11]: 0
- Plant response rating, Bromegrass, Downy [2, 12]: 5
- Plant response rating, Bromegrass, Downy [2, 13]: 20
- Plant response rating, Bromegrass, Downy [2, 14]: 40
- Plant response rating, Bromegrass, Downy [2, 15]: 70
- Plant response rating, Bromegrass, Downy [2, 16]: 70
- Plant response rating, Bromegrass, Downy [2, 17]: 98
- Plant response rating, Bromegrass, Downy ([2]; Preemergence, 250 g ai/ha, scale 0 to 100 (0 no effect, 100 complete control)): 100
- Plant response rating, Ryegrass, Italian [3, 11]: 100
- Plant response rating, Ryegrass, Italian [3, 12]: 100
- Plant response rating, Ryegrass, Italian [3, 13]: 100
- Plant response rating, Ryegrass, Italian [3, 14]: 100
- Plant response rating, Ryegrass, Italian [3, 15]: 100
- Plant response rating, Ryegrass, Italian [3, 16]: 100
- Plant response rating, Ryegrass, Italian [3, 17]: 100
- Plant response rating, Ryegrass, Italian [3, 18]: 100
- Plant response rating, Soybean (soybean (Glycine max); [11]): 20
- Plant response rating, Soybean (soybean (Glycine max); [12]): 30
- Plant response rating, Soybean (soybean (Glycine max); [13]): 90
- Plant response rating, Soybean (soybean (Glycine max); [14]): 90
- Plant response rating, Soybean (soybean (Glycine max); [15]): 0
- Plant response rating, Soybean (soybean (Glycine max); [16]): 0
- Plant response rating, Soybean (soybean (Glycine max); [17]): 0
- Plant response rating, Soybean (soybean (Glycine max); [18]): 20
- Plant response rating, Pigweed [4, 11]: 0
- Plant response rating, Pigweed [4, 12]: 0
- Plant response rating, Pigweed [4, 13]: 35
- Plant response rating, Pigweed [4, 14]: 50
- Plant response rating, Pigweed [4, 18]: 0
- Plant response rating, Morningglory [5, 11]: 0
- Plant response rating, Morningglory [5, 12]: 0
- Plant response rating, Morningglory [5, 13]: 0
- Plant response rating, Morningglory [5, 14]: 0
- Plant response rating, Morningglory [5, 15]: 0
- Plant response rating, Morningglory [5, 16]: 0
- Plant response rating, Morningglory [5, 17]: 0
- Plant response rating, Morningglory [5, 18]: 30
- Plant response rating, Corn (corn (Zea mays); [11]): 90
- Plant response rating, Corn (corn (Zea mays); [12]): 95
- Plant response rating, Corn (corn (Zea mays); [13]): 100
- Plant response rating, Corn (corn (Zea mays); [14]): 100
- Plant response rating, Corn (corn (Zea mays); [15]): 85
- Plant response rating, Corn (corn (Zea mays); [16]): 95
- Plant response rating, Corn (corn (Zea mays); [17]): 98
- Plant response rating, Corn (corn (Zea mays); [18]): 100
- Plant response rating, Cupgrass, Woolly [6, 11]: 100
- Plant response rating, Cupgrass, Woolly [6, 12]: 100
- Plant response rating, Cupgrass, Woolly [6, 13]: 100
- Plant response rating, Cupgrass, Woolly [6, 14]: 100
- Plant response rating, Cupgrass, Woolly [6, 15]: 85
- Plant response rating, Cupgrass, Woolly [6, 16]: 85
- Plant response rating, Cupgrass, Woolly [6, 17]: 100
- Plant response rating, Cupgrass, Woolly [6, 18]: 100
- Plant response rating, Velvetleaf [7, 11]: 5
- Plant response rating, Velvetleaf [7, 12]: 5
- Plant response rating, Velvetleaf [7, 13]: 20
- Plant response rating, Velvetleaf [7, 14]: 45
- Plant response rating, Velvetleaf [7, 15]: 0
- Plant response rating, Velvetleaf [7, 16]: 0
- Plant response rating, Velvetleaf [7, 17]: 40
- Plant response rating, Velvetleaf [7, 18]: 50
- Plant response rating, Nightshade, E. B. [8]: 80
- Plant response rating, Kochia (kochia (Kochia scoparia); [11]): 0
- Plant response rating, Kochia (kochia (Kochia scoparia); [12]): 0
- Plant response rating, Kochia (kochia (Kochia scoparia); [13]): 60
- Plant response rating, Kochia (kochia (Kochia scoparia); [14]): 70
- Plant response rating, Kochia (kochia (Kochia scoparia); [15]): 0
- Plant response rating, Kochia (kochia (Kochia scoparia); [17]): 0
- Plant response rating, Kochia (kochia (Kochia scoparia); [18]): 0
- Plant response rating, Foxtail, Green [9, 11]: 95
- Plant response rating, Foxtail, Green [9, 12]: 100
- Plant response rating, Foxtail, Green [9, 13]: 100
- Plant response rating, Foxtail, Green [9, 14]: 100
- Plant response rating, Foxtail, Green [9, 15]: 100
- Plant response rating, Foxtail, Green [9, 16]: 100
- Plant response rating, Foxtail, Green [9, 17]: 100
- Plant response rating, Foxtail, Green [9, 18]: 100
- Plant response rating, Surinam Grass [10, 11]: 100
- Plant response rating, Surinam Grass [10, 12]: 100
- Plant response rating, Surinam Grass [10, 13]: 100
- Plant response rating, Surinam Grass [10, 14]: 100
- Plant response rating, Surinam Grass [10, 15]: 100
- Plant response rating, Surinam Grass [10, 16]: 100
- Plant response rating, Surinam Grass [10, 17]: 100
- Plant response rating, Surinam Grass [10, 18]: 100
